Reference: patent US20200179487A1, “METHODS OF DIAGNOSIS AND TREATMENT OF PRE-ECLAMPSIA” (AGENCY FOR SCIENCE, TECHNOLOGY AND RESEARCH, priority 2016, published 2020)

Tested on: APJ-expressing primary allantoic cultures
Test: Allantoic explants treated with ligands, digital droplet PCR of gene expression
Assay type: cell-based, mouse
Conditions: 2.5 μM, 12 hours, ddPCR, ELA versus APLN
Procedure: Allantoic explants were microdissected from 4-5 somite stage embryos on the morning of the 8th day of conception in dissection medium (DMEM+Hepes+7.5% FCS), and cultured in DMEM+NaHCO3+50% rat serum, on poly-L-lysine coated microwells (Ibidi). […] 12 hours later, the explants were harvested by direct lysis and RNA extracted with the Nucleospin RNA XS kit (Machery Nagel). cDNA was made using the SMARTer® Pico PCR cDNA Synthesis Kit (Clontech) and gene quantitation was performed using digital droplet PCR (Biorad) with EvaGreen and PrimeTime probes listed below: […]

In the case of “APLN: APLN-36 (Sigma); Apelin, the alternate ligand for APJ (LVQPRGSRNGPGPWQGGRRKFRRQRPRLSHKGPMPF; Apelin-36; UniProt Q9ULZ1 42-77, looked up)”, the “expression of hypoxic response genes” value (Foxoa3 and Hif3α) is reported as “opposite effects” and the “expression of Esm1” value is reported as “opposite effects”.
